Entries after “also recorded” stand apart in the source; their conditions may differ.
What was measured:
[1] = Acute model of opioid tolerance (single s.c. morphine 100 mg/kg); type: in vivo; conditions: for prevention of opioid tolerance, acute model: administered simultaneously with morphine 100 mg/kg s.c., FIG. 6
Excerpt: (§1) Acute tolerance and dependence model is a method commonly used by researchers. […] In addition, the CaMKII inhibitor KN93 also was effective in reversing an already-established tolerance or dependence in the model (FIGS. 8 and 9). […] All effects are dose-dependent on the magnitude of inhibition of CaMKII.

[2] = test system: mice; experiment: Chronic mouse model of opioid tolerance (s.c. 75 mg morphine pellet); type: in vivo; conditions: FIG. 5
Excerpt: Additional in vivo tests corroborated initial test results showing that administration of a CaMKII inhibitor reduces or eliminates opioid tolerance and dependence. […] Administration of a CaMKII inhibitor, i.e., KN93, effectively reversed the established tolerance to opioids (FIG. 5). The effect of KN93 is dose dependent.

[3] = Acute model of opioid dependence (single s.c. morphine 100 mg/kg); type: in vivo
Excerpt: as §1

[4] = test system: PKC; conditions: at doses administered; cited from earlier work
[5] = test system: protein kinase A; conditions: at doses administered; cited from earlier work
[6] = test system: morphine-pelleted rats; experiment: Morphine antinociceptive tolerance in morphine-pelleted rats, 52° C. warm water tail-flick test; type: in vivo, rat
Description: Individual groups of eight rats were implanted with i.th. catheters and allowed to recover for 5 to 7 days.
Individual groups of eight rats were implanted with i.th. catheters and allowed to recover for 5 to 7 days. […] KN93 dose-response effect was determined and compared to its effect in inhibiting CaMKII activity.
Male Sprague-Dawley rats (250-350 g) were used in all experiments.
For i.th. drug administration, rats were prepared according to the method described by Sakura et al. (1996). While under isoflurane anesthesia, an 8 cm length of PE10 tubing (32 gauge) was inserted through an incision made in the atlantooccipital membrane to the level of the lumbar enlargement. The catheter then was secured to the musculature at the site of incision, which then was closed. The rats were allowed 5 to 7 days to recover before experiments begin. […] Intrathecally administered substances were dissolved in saline and administered in a volume of 5 μl through a tubing with calibrated length connecting the i.th. catheter with the injection syringe. Progress of the injection was monitored carefully by observing the movement of a small air bubble (1 μl in volume) through the tubing. The catheter was cleared by flushing with 9 μl saline. In all cases, a dye was injected into the cannula at the termination of the experiment to ensure correct i.th. placement.
Briefly, while under isoflurane anesthesia, a 1.5 cm incision was made on the back of the animal. […] These pellets were left for less than 7 days unless otherwise indicated.
Latency to warm water tail withdrawal response was determined in the manner described previously (Wang et al., 2001, Vanderah et al., 2001). The one-third of distal tail was immersed into a water bath maintained at 52° C. […] The data were converted to % MPE (maximal possible effect), defined as 100×(test-control)/(cutoff-control), where control was the predrug observation, test was the postdrug observation, and cutoff was 10 seconds. Dose-response curves were generated over time to determine the time of peak effect, the dose producing 50% MPE (A50), and its confidence intervals (Tallarida et al., 1986).

[7] = molecular target: CaMKII (Homo sapiens, UniProt Q9UQM7); conditions: structural analog of KN93 used as control; cited from earlier work
[8] = test system: CaMKII; experiment: Spinal CaMKII activity (pCaMKII Western blot) in morphine-pelleted rats; type: in vivo, rat; conditions: lumbar spinal cord, morphine vs placebo pelleted rats, two pairs of animals, β-actin control; FIG. 4
Excerpt: The average increase of CaMKII activity from two pairs of animals was 250%.
Briefly, while under isoflurane anesthesia, a 1.5 cm incision was made on the back of the animal. Morphine and placebo pellets were implanted into the subcutaneous space and the incision was closed with wound clips. These pellets were left for less than 7 days unless otherwise indicated.
Rats were sacrificed by carbon dioxide inhalation and decapitated. The spinal column was cut through at the S1/S2 level. A 16-gauge needle was inserted in the sacral vertebral canal, attached to a syringe containing ice-cold saline, and the spinal cord was ejected through the cervical opening. The spinal cord was placed on ice in a glass Petri dish and rapidly dissected using a dissecting microscope. For consistency, the lumbar enlargement corresponding to the L1 to L6 spinal segments was excised and used for all assays. […]
Spinal segments or harvested SH-SY5Y cells were homogenized on ice in RIPA buffer (1% NP-40, 0.5% sodium deoxycholate, 0.1% sodium dodecyl sulfate (SDS), 5 mM EDTA in PBS, pH 7.4) (3 ml/g wet tissue, or 0.6 ml/10 cm dish) in the presence of protease inhibitors (0.05 mg/ml pepstatin, 0.05 mg/ml aprotinin, 0.1 mg/ml phenylmethylsulfonyl fluoride). […] ECL-detected bands were analyzed using a densitometer and. Quantity One analysis program (BioRad, Hercules, Calif.).

Chain of CaMKII (Homo sapiens, UniProt Q9UQM7) (Q9UQM7 whole entry): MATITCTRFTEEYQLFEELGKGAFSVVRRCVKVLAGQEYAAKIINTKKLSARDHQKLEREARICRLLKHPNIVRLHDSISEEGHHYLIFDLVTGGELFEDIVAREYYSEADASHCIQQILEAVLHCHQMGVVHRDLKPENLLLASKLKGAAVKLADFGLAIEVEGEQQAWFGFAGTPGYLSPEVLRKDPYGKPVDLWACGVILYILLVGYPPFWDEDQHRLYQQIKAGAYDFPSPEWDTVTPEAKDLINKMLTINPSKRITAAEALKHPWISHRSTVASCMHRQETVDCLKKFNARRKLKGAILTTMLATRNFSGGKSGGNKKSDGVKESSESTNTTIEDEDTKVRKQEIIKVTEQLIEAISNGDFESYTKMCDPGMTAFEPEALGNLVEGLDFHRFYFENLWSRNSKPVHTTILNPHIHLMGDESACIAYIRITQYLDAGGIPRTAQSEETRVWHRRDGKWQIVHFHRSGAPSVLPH

COc1ccc(S(=O)(=O)N(CCO)c2ccccc2CN(C)CC=Cc2ccc(Cl)cc2)cc1 [KN93]
prevention of opioid tolerance, acute model [1]: prevents opioid tolerance | reversal of established opioid tolerance, acute model ([1]; already-established tolerance, FIG. 8): dose-dependently reverses | effect on established opioid tolerance, chronic model ([2]; chronic morphine pellet): dose-dependently reverses | prevention of opioid dependence, acute model ([3]; administered simultaneously with morphine 100 mg/kg s.c., FIG. 7): dose-dependently prevents | reversal of established opioid dependence, acute model ([3]; already-established dependence, FIG. 9): dose-dependently reverses | inhibition of PKC [4]: does not inhibit | inhibition of protein kinase A [5]: does not inhibit | effect on established morphine antinociceptive tolerance ([6]; KN93 15 nmol i.th. 15 minutes before i.th. morphine, 45 minutes before tail-flick, p<0.05 vs MS group, FIG. 3): reversed; also recorded: blocked | effect on basal nociception ([6]; KN93 alone, data not shown): did not alter | effect on morphine-antinociception in naïve rats ([6]; naïve rats, data not shown): nor did KN93 affect | effect on morphine-induced analgesia ([6]; summary of test results): does not affect

COc1ccc(S(=O)(=O)Nc2ccccc2CN(C)C/C=C/c2ccc(Cl)cc2)cc1 [KN92]
prevention of opioid tolerance, acute model [1]: does not affect opioid tolerance | inhibition of CaMKII [7]: does not inhibit

CN1CC[C@]23c4c5ccc(O)c4O[C@H]2[C@@H](O)C=C[C@H]3[C@H]1C5 [morphine]
average increase of CaMKII activity (pCaMKII content) [8]: 250% | antinociceptive effects of morphine after chronic morphine treatment ([2]; s.c. 75 mg controlled-release pellet up to seven days): significantly reduced antinociceptive effects | antinociceptive effect of acute i.th. morphine in morphine-pelleted vs placebo-pelleted rats ([6]; two 75 mg morphine pellets s.c., day 5, i.th. morphine 10 μg, 30 minutes, FIG. 3): significantly reduced antinociceptive effect

— patent US7256200B2, “Method and composition for potentiating an oplate analgesic” (The Board of Trustees of the University of Illinois, a body …, priority 2003, dated 2007)
